Reference: ChEMBL document CHEMBL1149800, “Synthesis, physicochemical properties and antimicrobial evaluation of new (E)-chalcones” (Eur J Med Chem, 2008)
In brackets after ≈: the same amount, converted by molar mass.

Legend:
Enterococcus faecalis = test: Antibacterial activity against Enterococcus faecalis after 18 hrs by hole-plate agar diffusion method; type: functional
Bacillus subtilis = test: Antibacterial activity against Bacillus subtilis ATCC 1633 after 18 hrs by hole-plate agar diffusion method; type: functional; details: ATCC 1633, 18 h
Staphylococcus aureus = test: Antibacterial activity against Staphylococcus aureus 209P FDA after 18 hrs by hole-plate agar diffusion method; type: functional
Nannizzia gypsea = test: Antifungal activity against Microsporum gypseum after 3 to 7 days; type: functional
Candida albicans = test: Antifungal activity against Candida albicans PCM 1409 PZH after 3 to 7 days; type: functional, organism-based
Escherichia coli = test: Antibacterial activity against Escherichia coli PZH 026 B6 after 18 hrs by hole-plate agar diffusion method; type: functional

Row | Compound | MIC (Enterococcus faecalis) [µM] | MIC (Bacillus subtilis) [µM] | MIC (Staphylococcus aureus) [µM] | MIC (Nannizzia gypsea) [µM] | MIC (Candida albicans) [µM] | MIC (Escherichia coli) [µM]
1 | O=C(/C=C/c1ccc(OCCCCN2CCOCC2)cc1)c1ccccc1 | – | – | – | 274 (≈ 100 µg/mL) | – | –
2 | O=C(/C=C/c1ccc(OCCCCCN2CCOCC2)cc1)c1ccccc1 | – | – | – | 264 (≈ 100 µg/mL) | – | –
3 | O=C(/C=C/c1ccc(OCCCCCCN2CCOCC2)cc1)c1ccccc1 | – | – | – | 254 (≈ 100 µg/mL) | – | –
4 | O=C(/C=C/c1ccc(OCCCCCBr)cc1)c1ccccc1 | – | – | – | 268 (≈ 100 µg/mL) | – | –
5 | O=C(/C=C/c1ccc(OCCCCN2CCCCC2)cc1)c1ccccc1 | 275 (≈ 100 µg/mL) | 275 (≈ 100 µg/mL) | 275 (≈ 100 µg/mL) | – | – | –
6 | O=C(/C=C/c1ccc(SCCCCCN2CCCCC2)cc1)c1ccccc1 | 254 (≈ 100 µg/mL) | 254 (≈ 100 µg/mL) | 254 (≈ 100 µg/mL) | 254 (≈ 100 µg/mL) | 127 (≈ 50 µg/mL) | 254 (≈ 100 µg/mL)
7 | O=C(/C=C/c1ccc(OCCCCCN2CCCCC2)cc1)c1ccccc1 | 265 (≈ 100 µg/mL) | 265 (≈ 100 µg/mL) | 265 (≈ 100 µg/mL) | – | – | –
8 | CC1CCN(CCCCOc2ccc(/C=C/C(=O)c3ccccc3)cc2)CC1 | 265 (≈ 100 µg/mL) | 265 (≈ 100 µg/mL) | 133 (≈ 50.2 µg/mL) | 265 (≈ 100 µg/mL) | – | –
9 | CC1CCN(CCCCCOc2ccc(/C=C/C(=O)c3ccccc3)cc2)CC1 | 26 (≈ 10.2 µg/mL) | 128 (≈ 50.1 µg/mL) | 19 (≈ 7.44 µg/mL) | 256 (≈ 100 µg/mL) | – | –
10 | O=C(/C=C/c1ccc(OCCCCCCN2CCCCC2)cc1)c1ccccc1 | 256 (≈ 100 µg/mL) | 256 (≈ 100 µg/mL) | 256 (≈ 100 µg/mL) | < 256 | – | –
11 | O=C(/C=C/c1ccc(OCCCCCCCCCCN2CCCCC2)cc1)c1ccccc1 | 209 (≈ 93.6 µg/mL) | 209 (≈ 93.6 µg/mL) | 21 (≈ 9.4 µg/mL) | – | – | –
12 | O=C(/C=C/c1ccc(SCCCCBr)cc1)c1ccccc1 | – | – | 267 (≈ 100 µg/mL) | – | – | –
13 | O=C(/C=C/c1ccc(SCCCCN2CCCCC2)cc1)c1ccccc1 | 264 (≈ 100 µg/mL) | 26 (≈ 9.87 µg/mL) | 26 (≈ 9.87 µg/mL) | 264 (≈ 100 µg/mL) | – | –
14 | O=C(/C=C/c1ccc(SCCCCCCN2CCNCC2)cc1)c1ccccc1 | 245 (≈ 100 µg/mL) | – | 245 (≈ 100 µg/mL) | – | – | –
15 | O=C(/C=C/c1ccc(SCCCCN2CCNCC2)cc1)c1ccccc1 | 263 (≈ 100 µg/mL) | 263 (≈ 100 µg/mL) | 263 (≈ 100 µg/mL) | – | – | –
16 | O=C(N[C@H](CO)[C@H](O)c1ccc([N+](=O)[O-])cc1)C(Cl)Cl [CHLORAMPHENICOL] | 15 (≈ 4.85 µg/mL) | 15 (≈ 4.85 µg/mL) | 15 (≈ 4.85 µg/mL) | – | – | 15 (≈ 4.85 µg/mL)

The next lines start with the values.

Row | MIC (Enterococcus faecalis) [µM] | MIC (Bacillus subtilis) [µM] | MIC (Staphylococcus aureus) [µM] | MIC (Nannizzia gypsea) [µM] | MIC (Candida albicans) [µM] | MIC (Escherichia coli) [µM] | Compound
17 | 25 (≈ 10.1 µg/mL) | 19 (≈ 7.71 µg/mL) | 25 (≈ 10.1 µg/mL) | 123 (≈ 49.9 µg/mL) | – | – | CC1CCN(CCCCCCOc2ccc(/C=C/C(=O)c3ccccc3)cc2)CC1
18 | – | – | – | 189 (≈ 74.8 µg/mL) | – | – | O=C(/C=C/c1ccc(SCCCCCN2CCOCC2)cc1)c1ccccc1
19 | – | – | – | < 244 | – | – | O=C(/C=C/c1ccc(SCCCCCCN2CCOCC2)cc1)c1ccccc1
20 | 25 (≈ 10.2 µg/mL) | 25 (≈ 10.2 µg/mL) | 25 (≈ 10.2 µg/mL) | < 246 | < 246 | – | O=C(/C=C/c1ccc(SCCCCCCN2CCCCC2)cc1)c1ccccc1
21 | – | – | 216 (≈ 100 µg/mL) | 216 (≈ 100 µg/mL) | – | – | O=C(/C=C/c1ccc(SCCCCCCCCCCN2CCCCC2)cc1)c1ccccc1
22 | – | – | – | 193 (≈ 75.1 µg/mL) | – | – | O=C(/C=C/c1ccc(SCCCCCBr)cc1)c1ccccc1
23 | 254 (≈ 100 µg/mL) | 254 (≈ 100 µg/mL) | 25 (≈ 9.84 µg/mL) | 191 (≈ 75.2 µg/mL) | – | – | CC1CCN(CCCCSc2ccc(/C=C/C(=O)c3ccccc3)cc2)CC1
24 | 25 (≈ 10.2 µg/mL) | 25 (≈ 10.2 µg/mL) | 18 (≈ 7.34 µg/mL) | 184 (≈ 75 µg/mL) | 184 (≈ 75 µg/mL) | – | CC1CCN(CCCCCSc2ccc(/C=C/C(=O)c3ccccc3)cc2)CC1
25 | 24 (≈ 10.1 µg/mL) | 18 (≈ 7.59 µg/mL) | 24 (≈ 10.1 µg/mL) | < 237 | < 237 | – | CC1CCN(CCCCCCSc2ccc(/C=C/C(=O)c3ccccc3)cc2)CC1
26 | – | – | – | 11 (≈ 10.2 µg/mL) | 0.5 (≈ 0.462 µg/mL) | – | C[C@@H]1[C@H](O)[C@@H](C)/C=C/C=C/C=C/C=C/C=C/C=C/C=C/[C@H](O[C@@H]2O[C@H](C)[C@@H](O)[C@H](N)[C@@H]2O)C[C@@H]2O[C@](O)(C[C@@H](O)C[C@@H](O)[C@H](O)CC[C@@H](O)C[C@@H](O)CC(=O)O[C@H]1C)C[C@H](O)[C@H]2C(=O)O [AMPHOTERICIN B]
